This note sets out measurements from patent publication US10364471B2, “Tumor suppressor REC8 as a biomarker for gastric cancer” (The Chinese University of Hong Kong, priority 2017, dated 2019).

This test relates to REC8 mRNA expression in gastric cancer cell lines. The test is described as follows: Demethylation treatment with 5-Aza, REC8 mRNA by RT-PCR. The class given is cell-based, human. Conditions: 2 uM 5-Aza for 5 days. On the procedure:
Gastric cancer cells were treated with 2 uM DNA demethylation agent 5-Aza-2′-deoxycytidine (5-Aza) (Sigma-Aldrich, St Louis, Mo.) for 5 days and medium was refreshed every day.
Total RNA was extracted from cell pellets or tissues using Qiazol® reagent (Qiagen, Valencia, Calif.), and cDNA was synthesized using Transcriptor Reverse Transcriptase (Roche, Indianapolis, Ind.). RT-PCR was performed using the GoTaq® DNA polymerase (Promega). qPCR was performed using SYBR Green master mixture on HT7900 system (Applied Biosystems, Foster City, Calif.). Primers used are listed in Table 5 and also published previously.^7

Regarding `Nc1ncn([C@H]2C[C@H](O)[C@@H](CO)O2)c(=O)n1` [5-Aza, 5-Aza-2′-deoxycytidine], the “REC8 mRNA expression” value is, setting by setting: (AGS with REC8 expression/unmethylated) “had no effect”; (cell lines with REC8 down-regulated/methylated (BGC823, SNU719, NCI-N87, MKN28, AGS-EBV)) “restored”.
